Laboratory results: US20030124151A1, “Pamidronate solution” (Mayne Pharma Pty Ltd., priority 2000, published 2003)

Experiments:
[1] = cited from earlier work
[2] = pH of one percent solution in distilled water; type: physicochemical

Compound | Solubility in water [1] | pH of solution [2]
NCCC(O)(P(=O)(O)O)P(=O)(O)O [Pamidronic acid, (3 amino-1-hydroxypropylidene) bisphosphonic acid] | practically insoluble | –
NCCC(O)(P(=O)(O)O)P(=O)(O)O [pamidronate disodium] | – | approximately 8.3
